From paper PMC3988166 (PLoS ONE, 2014) come the findings set out here.

One data set is described as follows: Plasma stability assay. It counts as in vitro ADME. As to conditions: human, after incubation at 37°C for 120 min, read-out: % remained in human plasma. As for the experimental part: Blood sample collection from a healthy and consenting human adult for this study was approved by and conducted according to the guidelines set by The University of Queensland Medical Research Ethics Committee (approval number: 2009000661). Written consent was obtained prior to the collection of blood samples. Plasma was isolated from fresh-heparin treated blood by centrifugation at 660×g for 15 min. […] Compounds (300 µL) were mixed with 300 µL of the plasma, pre-warmed at 37°C and incubated at 37°C. Samples (50 µL) were collected at predetermined time points (0, 5, 10, 20, 30, 40, 60, 90 and 120 min), and added into 75 µL ACN to precipitate the plasma proteins. Samples were then centrifuged at 7300×g for 10 min.

Data set [1] can be described thus: Caco-2 cell permeability assay. As to conditions: Caco-2; for Papp A→B at 150 min, 200 µM: human. Here is the method:
(§1) Human colorectal adenocarcinoma cells (Caco-2 cells) were obtained from the American Type Culture Collection, Rockville, USA. A Branson Sonifier 250 (Branson Ultrasonics, Danbury, USA) was used to lyse the cells for stability experiments. Protein content was measured using the BioRad protein assay kit (BioRad, Hercules, USA). TPP 96-well plates for stability assays were purchased from Sigma Aldrich (Castle Hill, Australia). For permeability studies Caco-2 cell monolayers were grown in 24 well plates with Transwell polycarbonate cell culture inserts (pore size 0.4 µm, diameter 6.5 mm) from Corning Incorporated (New York, USA). A Millicell-ERS epithelial Transep volt-ohmmeter system (EMD Millipore Corporation, Billerica, USA) was used to measure the transepithelial electrical resistance (TEER) values of the cells. Scintillation counting was carried out using Liquid Scintillation Systems from Beckman Coulter (Brea, USA).
(§2) A cell suspension of Caco-2 cells in the cell culture medium was adjusted to a cell density of 1×10^6 cells/mL before being aliquoted (100 µL) into Transwell polycarbonate cell culture inserts in a 24-well plate, while 600 µL of media was added to the basolateral chamber. The culture medium was changed every other day for 21–28 days. TEER values were measured before and after the assay, to determine the integrity of tight junctions of the cell monolayers. […] Cell monolayers were washed with pre-warmed HBSS–HEPES and incubated for 30 min at 37°C. Test compounds and the control propanolol, were prepared in HBSS–HEPES buffer to a final concentration of 200 µM. After incubation, buffer in the apical chamber was removed and replaced with 100 µL aliquots of each of the test compounds. […] The concentration of the peptide in the collected samples was determined using LC-MS analysis as described for the stability assay above. Radioactivity of the [^14C]-D-mannitol samples was quantified by liquid scintillation counting (Liquid Scintillation Systems).
(§3) The apparent permeability (Papp, cm/s) of each compound was calculated using the following equation: [drawing 1]
(§4) Where dC/dt is the steady-state rate of change in the test item concentration (M/s) or radiochemical concentration (dpm mL/s) in the receiver chamber, Vr is the volume of the receiver chamber (mL), A is the surface area of the cell monolayers and C0 is the initial concentration in the donor chamber (M or dpm/mL).
(§5) The average Papp values (±S.D.) from three replicates is presented.

A further data set relates to Caco-2 cell monolayers. The data set is described as follows: Caco-2 cell permeability assay. Here is the method: as §1, §2, §3, §4, §5
A short description of data set [2]: Caco-2 cell permeability assay in the presence of phlorizin (inhibitor for SGLT1). It counts as in vitro ADME, human. As to conditions: Caco-2 cell monolayer, 200 µM compound + 100 µM phlorizin, n = 3; read-out: P app, Phlorizin. As for the experimental part: (§6) Permeability experiments (as described above) were conducted to investigate whether the compounds used the sugar transporters SGLT1 or GLUT2 for their transport across cell membranes. Samples containing 200 µM test compound and 100 µM phlorizin (inhibitor for SGLT1) or 100 µM phloretin (inhibitor for GLUT2) in HBSS-HEPES buffer were added to the apical chamber. […] P app values for each compound were then calculated as above.

Data set [3] can be described thus: Caco-2 cell permeability assay in the presence of phloretin (inhibitor for GLUT2). It is filed as in vitro ADME, human. As to conditions: Caco-2 cell monolayer, 200 µM compound + 100 µM phloretin, n = 3; read-out: P app, Phloretin. As for the experimental part: as §6
The next data set has as its target T1, Recombinant human ASGPR (Homo sapiens, UniProt P07306).
T1 construct: purchased Sino Biological Inc. (Beijing, China)
T1 sequence (P07306 62-291 limits assumed): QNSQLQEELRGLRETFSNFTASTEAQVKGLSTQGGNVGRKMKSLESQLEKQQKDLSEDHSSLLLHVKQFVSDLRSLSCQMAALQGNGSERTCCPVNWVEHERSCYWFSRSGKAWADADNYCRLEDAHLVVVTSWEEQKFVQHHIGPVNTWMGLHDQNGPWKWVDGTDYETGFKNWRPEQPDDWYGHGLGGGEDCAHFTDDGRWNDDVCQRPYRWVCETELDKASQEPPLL
As to the kind of experiment: biochemical. It is filed as binding. Here is the method: SPR experiments were performed on a Biacore T100 (GE Healthcare, Little Chalfont, UK) at 25°C. Recombinant human ASGPR (the subunit of ASGPR that contains the carbohydrate binding site) used was from Sino Biological Inc. (Beijing, China). The receptor was immobilized onto a series S sensor chip CM5 (GE Healthcare, Little Chalfont, UK) using the N-hydroxysuccinimide (NHS) capture kit (GE Healthcare, Little Chalfont, UK).
Recombinant human ASGPR was immobilized onto a series S sensor chip CM5 using the NHS capture kit, where ASGPR was covalently linked to the surface of the chip via free amine groups. Compounds were tested at 10–1000 µM concentrations using multi-cycle kinetics with at least three experiments performed for each interaction. Single cycle kinetics was applied to optimize concentrations prior to completion of multi-cycle kinetics as described by Dumont et al.. […] The running buffer for all SPR experiments was 20 mM HEPES, pH 7.4, 150 mM NaCl, 5 mM CaCl2, and 0.005% TWEEN 20.

The next data set concerns the target Gal-Enk (Homo sapiens). As to the kind of experiment: SPR.
Data set [4] concerns the target Gal-Lac-Enk (Homo sapiens). The data set is described as follows: SPR.
The target of another data set is Lac-Enk (Homo sapiens). As to the kind of experiment: SPR.
Data set [5] deals with Leu-enkephalin (Homo sapiens). As to the kind of experiment: SPR.

Read-outs that look alike come from different tables or passages of the source.

On to `CC(C)C[C@H](NC(=O)[C@H](Cc1ccccc1)NC(=O)CNC(=O)CNC(=O)[C@H](Cc1ccc(O)cc1)NC(=O)CCC(=O)N[C@@H]1O[C@H](CO)[C@@H](O[C@@H]2O[C@H](CO)[C@H](O)[C@H](O)[C@H]2O)[C@H](O)[C@H]1O)C(N)=O` [Lac-Enk, N^1-Leu-enkephalin-N^4-(β-D-galactopyranosyl-(1→4)-β-D-glucopyranosyl)succinamide], for which the remaining at 2 h, 0.5 mg/mL in “Plasma stability assay” is around 70%. Besides, the results for the Papp A→B in [1], in [2] and in data set [3] were 1.72 ×10⁻⁶ cm/s, 0.711 ± 0.145 ×10⁻⁶ cm/s and 0.921 ± 0.084 ×10⁻⁶ cm/s, respectively. The “P app, Control (compound only)” value with Caco-2 cell monolayers (Caco-2 cell monolayer, 200 µM, n = 3) is 17.20±12.40 ×10^−7 cm/s. Moreover, at Recombinant human ASGPR, the koff was 0.0086 ± 0.002 s⁻¹. Besides, the on-rate (kon) on Recombinant human ASGPR came to 40.7 ± 6.3 M⁻¹ s⁻¹. The Kd at Recombinant human ASGPR (KD) was determined as 211 ± 70.9 µM.

`OC[C@H]1O[C@@H](O[C@H]2[C@H](O)[C@@H](O)[C@H](O)O[C@@H]2CO)[C@H](O)[C@@H](O)[C@H]1O` [D-Lactose, reference compound]: on Recombinant human ASGPR (SPR, immobilized ASGPR, 25°C, read-out: KD), the Kd worked out at 19.2 ± 3.28 µM.

With `CC(C)NCC(O)COc1cccc2ccccc12` (stereo not drawn) [propanolol, reference compound], the Papp A→B at 150 min, 200 µM in data set [1] amounted to 134 ×10⁻⁶ cm/s.

`CC(C)C[C@H](NC(=O)[C@H](Cc1ccccc1)NC(=O)CNC(=O)CNC(=O)[C@H](Cc1ccc(O)cc1)NC(=O)CCC(=O)N[C@@H]1O[C@H](CO)[C@H](O)[C@H](O)[C@H]1O)C(N)=O` [Gal-Enk, N^1-Leu-enkephalin-N^4-(β-D-galactopyranosyl)succinamide]: the remaining at 2 h, 0.5 mg/mL in “Plasma stability assay” is around 60%. The molecule also yielded a Papp A→B at 150 min, 200 µM in data set [1] of 0.798 ± 0.203 ×10⁻⁶ cm/s. Further, in data set [2], the Papp A→B turned out to be 1.18 ± 0.276 ×10⁻⁶ cm/s. Also, the Papp A→B in data set [3] stood at 1.58 ± 0.723 ×10⁻⁶ cm/s. Further, at Recombinant human ASGPR, the off-rate (koff) stood at 0.072 ± 0.025 s⁻¹ and the kon is 328 ± 84.8 M⁻¹ s⁻¹. Further, the Kd at Recombinant human ASGPR (KD) was 219 ± 164 µM.

As to `OC[C@@H](O)[C@@H](O)[C@H](O)[C@H](O)CO` [^14C mannitol, [^14C]-D-mannitol, reference compound], the “apparent permeability (Papp)” value in the data set on Caco-2 cell monolayers (Caco-2 monolayers, apical to basolateral, compound only, values in text) was 4.4×10^−9 (±3.86) cm/s.

For the molecule `CC(C)C[C@H](NC(=O)[C@H](Cc1ccccc1)NC(=O)CNC(=O)CNC(=O)[C@H](Cc1ccc(O)cc1)NC(=O)CCC(=O)N[C@@H]1O[C@H](CO)[C@@H](O[C@@H]2O[C@H](CO)[C@H](O[C@H]3O[C@H](CO)[C@H](O)[C@H](O)[C@H]3O)[C@H](O)[C@H]2O)[C@H](O)[C@H]1O)C(N)=O` [Gal-Lac-Enk, N^1-Leu-enkephalin-N^4-(α-D-galactopyranosyl-(1→4)-β-D-galactopyranosyl-(1→4)-β-D-glucopyranosyl)succinamide], in the data set “Plasma stability assay” (plasma), the remaining at 2 h was around 100%. Further, the Papp A→B at 150 min, 200 µM in data set [1] was 0.44 ± 0.163 ×10⁻⁶ cm/s. For the same molecule, the Papp A→B in data set [2] stood at 0.561 ± 0.137 ×10⁻⁶ cm/s. Moreover, the Papp A→B in data set [3] is 0.712 ± 0.137 ×10⁻⁶ cm/s. Further, at Recombinant human ASGPR, the “increase in binding affinity compared to the peptide alone” value is on record as “two-fold”, the off-rate (koff) was 0.0041 ± 0.003 s⁻¹ and the kon was 45 ± 28.9 M⁻¹ s⁻¹. For the same molecule, the Kd at Recombinant human ASGPR (KD) is 91.1 ± 22.1 µM.

B1: Asialoglycoprotein receptor (ASGPR, carbohydrate-binding subunit), P07306 (protein)
chain: MTKEYQDLQHLDNEESDHHQLRKGPPPPQPLLQRLCSGPRLLLLSLGLSLLLLVVVCVIGSQNSQLQEELRGLRETFSNFTASTEAQVKGLSTQGGNVGRKMKSLESQLEKQQKDLSEDHSSLLLHVKQFVSDLRSLSCQMAALQGNGSERTCCPVNWVEHERSCYWFSRSGKAWADADNYCRLEDAHLVVVTSWEEQKFVQHHIGPVNTWMGLHDQNGPWKWVDGTDYETGFKNWRPEQPDDWYGHGLGGGEDCAHFTDDGRWNDDVCQRPYRWVCETELDKASQEPPLL
B1: the Kd in the data set with Gal-Enk (Homo sapiens) amounted to 219 µM; in [4] it was 91.1 µM; with Lac-Enk (Homo sapiens) it was 211 µM; in [5] it was 277 µM.
